Experimental data reported in patent US4788304A, “Phospholipase A2 inhibitors” (American Home Products Corporation, priority 1987, dated 1988).

Tests used:
[1] = tested on: synthesis of LTB4 by rat glycogen-elicited polymorphonuclear leukocytes (PMN); assay: Inhibition of LTB4 synthesis by rat glycogen-elicited polymorphonuclear leukocytes (PMN); type: cell-based, rat (female Wistar); conditions: Leukocyte, A23187-stimulated rat PMN
[2] = tested on: TPA-induced mouse ear edema; assay: TPA-induced murine ear edema test; type: in vivo, mouse (Swiss Webster); conditions: 1 mg/ear, 30 min after TPA, measured 4 h after TPA
[3] = tested on: rat carrageenan paw edema; assay: Rat carrageenan paw edema; type: in vivo, rat (Sprague-Dawley); conditions: at 50 mg/kg (peroral), 1 h prior to carrageenan; 3 h
Description: The compounds in the scope of the invention are further tested in the rat carrageenan paw edema to determine their ability to inhibit the acute inflammatory response.
[…] male Sprague-Dawley rats, in groups of 6 animals are injected subcutaneously in the right paw with 0.1 ml of 1% carrageenan at zero time. Mercury plethysmographic readings (ml) of the paw are made at zero time and 3 hours later. Test compounds are suspended or dissolved in 0.5% methylcellulose and given perorally 1 hour prior to carrageenan administration.
The increase in paw volume (edema in ml.) produced by the carrageenan is measured. Paw edema is calculated (3 hour volume minus zero time volume), and percent inhibition of edema is determined. Unpaired Student's t-test is used to determine statistical significance.

[4] = tested on: synthesis of the arachidonic acid cyclooxygenase oxidation product TxB2; assay: Inhibition of TxB2 synthesis (cyclooxygenase product) by rat polymorphonuclear leukocytes; type: cell-based, rat (female Wistar); conditions: Leukocyte, A23187-stimulated rat PMN
[5] = tested on: bronchospasm induced in guinea pigs by endogenous mediators of the bronchoconstriction; assay: Ovalbumin-induced bronchospasm in guinea pigs; type: in vivo, guinea pig (Hartley); conditions: Cavia porcellus; intraduodenally administered, 10 minutes before intravenously administered ovalbumin challenge
Description: The assay of this Example measures the in vivo ability of the compounds in the scope of the invention to inhibit the bronchospasm induced in guinea pigs by endogenous mediators of the bronchoconstriction.
Male Hartley strain guinea pigs weighing 250-350 g are sensitized to chicken ovalbumin (OA) (10 mg i.p.) on days 1 and 3 and used starting on day 26. The animals are anesthetized with pentobarbital sodium (50 mg/kg, i.p.), bilateral vagotomy is performed, and the jugular vein is cannulated for injection of drugs and the carotid artery for monitoring blood pressure. The trachea is cannulated for artificial ventilation by miniature Starling pump and for indirect measurement of respiratory volume changes as described, infra. Succinylcholine (2 mg/kg, i.v.) is administered to arrest spontaneous respiration. […]
Respiratory volume changes are determined by a calibrated piston whose travel is recorded, via a linear transducer, on a Beckman Dynograph recorder. Maximal bronchoconstrictor volume is determined by clamping off the trachea at the end of the experiment. Overflow volumes at minutes 1, 3 and 5 are obtained from the recorded charts.
Area under the volume overflow curve (AUC) is estimated, using the overflow values at 1, 3 and 5 minutes, and expressed as a percentage of the maximal overflow AUC (equation 1): [formula] […]

In the case of `COC(=O)C1(C(=O)CCCCOc2ccc(Cl)cc2)CO1` (centres unmarked) [Example 6A, 2-[5-(4-Chlorophenoxy)-1-oxopentyl]-2-oxiranecarboxylic acid methyl ester], the inhibition at 10 µM [1] is reported as 11%, the “Mouse Ear Edema Assay, % Change from Control, TOPICAL, TPA” value [2] is reported as -42% and the “% Inhibition of paw edema” value [3] is reported as 50%. The inhibition at 10 µM [4] was 30% and the ED50 [5] was 13.5 mg/kg.
